This note sets out measurements from ChEMBL document CHEMBL1134872, “Isothiazole dioxides: synthesis and inhibition of Trypanosoma brucei protein farnesyltransferase” (2002).

One may read the inhibition as the percentage by which the read-out fell short of the control.

The test system of assay [1] is Protein farnesyltransferase (Trypanosoma brucei). In words: Percentage in vitro inhibition of recombinant Trypanosoma brucei protein farnesyltransferase at 2 uM.
Assay [2] deals with T1, geranylgeranyltransferase type-I (Rattus norvegicus) (UniProt P53610+Q04631). In words: Percentage in vitro inhibition of rat protein geranylgeranyltransferase type-I at 50 uM. The format is protein-complex assay.
Assay [3] addresses T2, Protein farnesyltransferase (Rattus norvegicus) (UniProt Q04631+Q02293). The experiment in a line: Percentage in vitro inhibition of rat protein farnesyltransferase at 50 uM. Format: protein-complex assay.
For assay [4], the target named is T2, Protein farnesyltransferase (Rattus norvegicus). The experiment in a line: Percentage in vitro inhibition of rat protein farnesyltransferase at 100 uM. Format: protein-complex assay.
The target of assay [5] is T1, geranylgeranyltransferase type-I (Rattus norvegicus). In words: Percentage in vitro inhibition of rat protein geranylgeranyltransferase type-I at 100 uM. Format: protein-complex assay.
For assay [6], the system named is Protein farnesyltransferase (Trypanosoma brucei). In words: Percentage in vitro inhibition of recombinant Trypanosoma brucei protein farnesyltransferase at 100 uM.
The target in assay [7] is T2, Protein farnesyltransferase (Rattus norvegicus). The experiment in a line: Percentage in vitro inhibition of rat protein farnesyltransferase at 2 uM. The format is protein-complex assay.
Assay [8] concerns the target T1, geranylgeranyltransferase type-I (Rattus norvegicus). In words: Percentage in vitro inhibition of rat protein geranylgeranyltransferase type-I at 2 uM. Format: protein-complex assay.
Assay [9] shares this target. In words: Percentage in vitro inhibition of rat protein geranylgeranyltransferase type-I at 5 uM. The format is protein-complex assay.
The subject of assay [10] is Protein farnesyltransferase (Trypanosoma brucei). In words: Percentage in vitro inhibition of recombinant Trypanosoma brucei protein farnesyltransferase at 5 uM.
In assay [11] the test system is Trypanosoma brucei. The experiment in a line: In vitro dose required to inhibit growth of Trypanosoma brucei. The note with it: read-out: ED50 (the source's name). The format is functional.
For assay [12], the target named is T2, Protein farnesyltransferase (Rattus norvegicus). The experiment in a line: Percentage in vitro inhibition of rat protein farnesyltransferase at 5 uM. The format is protein-complex assay.

For `CCN(CC)C1=NS(=O)(=O)C(C2CC(c3ccccc3C)=NO2)=C1c1ccc(OC)cc1` (stereo unspecified), the inhibition in assay [1] is 2%; in assay [2], 0%; in assay [3] it was 22%.
`CCN(CC)C1=NS(=O)(=O)C(Sc2ccccc2)=C1c1ccc(OC)cc1`: the inhibition is 5% in assay [4], 17% in assay [5] and 62% in [6].
The corresponding values for `CCN(CC)C1=NS(=O)(=O)C(C)=C1c1ccc(OC)cc1` are 27%, 56% and 43%.
Take `CCOC1C(c2c(C)cc(C)cc2C)=NOC1C1=C(c2ccc(OC)cc2)C(N(CC)CC)=NS1(=O)=O` (stereo unspecified): the inhibition is 10% in [1], 12% in [2] and 9% in assay [3].
On to `CCN(CC)C1=NS(=O)(=O)C(C2CC(c3ccc(Cl)cc3)=NO2)=C1c1ccc(OC)cc1` (stereo unspecified), for which the inhibition in assay [1] is 0%; in assay [2] it was 20%; in [3] it was 8%.
Take `CCN(CC)C1=NS(=O)(=O)C(C2CC(c3c(C)cccc3C)=NO2)=C1c1ccc(OC)cc1` (stereo unspecified): the inhibition was 8% in assay [1], 17% in assay [2] and 22% in assay [3].
In the same order, the values of `CCN(CC)C1=NS(=O)(=O)C(c2cc(-c3c(C)cc(C)cc3C)no2)=C1c1ccc(OC)cc1` are 0%, 11% and 8%.
Regarding `CCN(CC)C1=NS(=O)(=O)C(C2CC(c3ccc(OC)cc3)=NO2)=C1c1ccc(OC)cc1` (stereo unspecified), the results for the inhibition in assay [1], in [2] and in assay [3] were 8%, 17% and 13%, respectively.
As for `CCN(CC)C1=NS(=O)(=O)C(C#Cc2ccccc2)=C1c1ccc(OC)cc1`, the inhibition in assay [7] was found to be 2%; in assay [1], 0%; in [8], 7%.
Take `CCN(CC)C1=NS(=O)(=O)C(c2cn(S(=O)(=O)c3ccccc3)c3ccccc23)=C1c1ccc(OC)cc1`: the inhibition in [4] worked out at 5%; in assay [5], 25%; in assay [6], 29%.
Take `CCN(CC)C1=NS(=O)(=O)C(C2CC(c3c(C)cc(C)cc3C)=NO2)=C1c1ccc(OC)cc1` (stereo unspecified): the inhibition in assay [1] worked out at 50%; in assay [9], 15%; in assay [10] it was 66%; in assay [12], 0%; in assay [2] it was 25%; in assay [3], 21%. Moreover, the EC50 in [11] was determined as 10 µM.
In the case of `CCN(CC)C1=NS(=O)(=O)C(C2CC(c3ccc([N+](=O)[O-])cc3)=NO2)=C1c1ccc(OC)cc1` (stereo unspecified), the inhibition is 2% in [1], 8% in assay [2] and 18% in assay [3].
Take `CCN(CC)C1=NS(=O)(=O)C(C2CC(c3c(Cl)cccc3Cl)=NO2)=C1c1ccc(OC)cc1` (stereo unspecified): the inhibition in assay [1] was found to be 32%; in assay [2] it was 45%; in assay [3], 14%.
In the case of `CCN(CC)C1=NS(=O)(=O)C(SC/C=C(\C)CC/C=C(/C)CCC=C(C)C)=C1c1ccc(OC)cc1`, the values for the inhibition in [4], in assay [5] and in assay [6] were 0%, 28% and 25%, respectively.
The corresponding values for `CCN(CC)C1=NS(=O)(=O)C(c2ccccn2)=C1c1ccc(OC)cc1` are 3%, 7% and 12%.
As for `CCN(CC)C1=NS(=O)(=O)C(SC)=C1c1ccc(OC)cc1`, the inhibition turned out to be 5% in assay [4], 36% in assay [5] and 7% in assay [6].
Take `CCN(CC)C1=NS(=O)(=O)C(C2CC(c3c(C)c(Cl)c(C)c(Cl)c3C)=NO2)=C1c1ccc(OC)cc1` (stereo unspecified): the inhibition in assay [1] worked out at 28%; in assay [2], 7%; in [3], 2%.
For the molecule `CCN(CC)C1=NS(=O)(=O)C(C2CC(c3c(C)c(C)c(C)c(C)c3C)=NO2)=C1c1ccc(OC)cc1` (stereo unspecified), the inhibition in assay [1] is 13%; in [3], 7%.
Consider `CCN(CC)C1=NS(=O)(=O)C(c2ccccc2)=C1c1ccc(OC)cc1`, for which the inhibition came out at 0% in [4], 26% in assay [5] and 13% in assay [6].
In the case of `CCN(CC)C1=NS(=O)(=O)C=C1c1ccc(OC)cc1`, the results for the inhibition in [9], in assay [10] and in assay [12] were 12%, 0% and 0%, respectively.
With `CCN(CC)C1=NS(=O)(=O)C(SC2CCCCC2)=C1c1ccc(OC)cc1`, the inhibition came out at 6% in assay [4], 20% in assay [5] and 52% in assay [6].
